Assay results as given in ChEMBL document CHEMBL1201862, “PubChem BioAssay data set” (2004).
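Step 1: Grow cells in 96-well plates. Step 2: Expose to compound for 48 hours at 5 concentrations. Step 3: Interpolate endpoints linearly; if unreached, use highest concentration. GI50 = concentration required for 50% inhibition of growth.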 The source made the active and inactive calls. Rule as the data show it: active = GI50 up to about 1.1 µM and inactive = higher.

Tests used:
Assay in all cases: NCI-60 cell line screen, 48 h
MDA-MB-435 = tested on: MDA-MB-435
SK-MEL-2 = tested on: SK-MEL-2
IGROV-1 = tested on: IGROV-1
SR = tested on: SR
Hs-578T = tested on: Hs-578T
HT-29 = tested on: HT-29
NCI-H460 = tested on: NCI-H460
SN12C = tested on: SN12C
A498 = tested on: A498
SW-620 = tested on: SW-620
M14 = tested on: M14
MCF7 = tested on: MCF7
NCI-H522 = tested on: NCI-H522
HL-60 = tested on: HL-60
CAKI-1 = tested on: CAKI-1
TK-10 = tested on: TK-10
KM12 = tested on: KM12
RXF 393 = tested on: RXF 393
OVCAR-3 = tested on: OVCAR-3
OVCAR-5 = tested on: OVCAR-5

Measured: GI50

O=C(O)c1ccc(OCc2ccccc2)c(Cl)c1
inactive: MDA-MB-435 80.5 µM | SK-MEL-2 > 100 µM | IGROV-1 > 100 µM | SR > 100 µM | Hs-578T > 100 µM | HT-29 > 100 µM | NCI-H460 > 100 µM | SN12C > 100 µM | A498 > 100 µM | SW-620 > 100 µM | M14 > 100 µM | MCF7 > 100 µM | NCI-H522 > 100 µM | HL-60 > 100 µM | CAKI-1 20.2 µM | TK-10 > 100 µM | KM12 30.3 µM | RXF 393 > 100 µM | OVCAR-3 > 100 µM | OVCAR-5 > 100 µM
